Common to all, as to test: NCI-60 cell line screen, 48 h
The subject of test [1] is HT29 colon.
Test [2] concerns SNB-75 CNS.
In test [3] the test system is SN12C renal.
In test [4] the test system is SK-MEL-2 melanoma.
Test [5] concerns A549 NSCLC.
The subject of test [6] is HCT-15 colon.
Test [7] concerns HOP-62 NSCLC.
Test [8] concerns MALME-3M melanoma.
Test [9] has as its system SR leukemia.
Test [10] concerns DU-145 prostate.

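Cultured in 96-well plates, cells were exposed to test compound for 48 hours across five concentrations. Abbreviation: GI50, concentration required for 50% inhibition of growth. TGI denotes the concentration required for complete inhibition of growth.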

With `C[C@]12CCC(=O)C=C1CC[C@@H]1C2CC[C@]2(C)c3nn(-c4ccccc4)nc3CC12` (some centres undefined), the TGI in test [1], in [2], in test [3], in test [4], in test [5] and in test [6] was more than 100 µM in each case. Further, the TGI in test [7] and in test [8] was more than 100 µM in each case.
As for `O=NN(CCCl)C(=O)NC1CCC(CC2CCC(NC(=O)N(CCCl)N=O)CC2)CC1` (centres undefined), the TGI was more than 100 µM in test [1]; 42.5 µM in test [2]; more than 73.5 µM in test [3]; 88.7 µM in [9]; more than 100 µM in test [4]; more than 100 µM in test [5]. Also, the figures for the TGI in [6], in [7] and in test [8] were more than 76.9 µM, 82.3 µM and more than 70.4 µM, respectively.
As for `CCN(CC)CCNC(=O)c1cccc2nc3ccccc3nc12`, the TGI is 28.3 µM in test [1]; more than 100 µM in test [2]; more than 100 µM in test [3]; 28.2 µM in test [4]; more than 89.1 µM in [5]; 41.8 µM in test [6]. The TGI in [7] came to 33.8 µM; in [8], 24.6 µM.
Turning to `N.N.O=P([O-])([O-])C1(P(=O)([O-])[O-])CCCCCN1.[Pt+2]`, the GI50 is more than 100 µM in test [1]; 29.5 µM in test [2]; more than 100 µM in test [3]; more than 100 µM in test [4]; more than 100 µM in test [5]; more than 100 µM in test [6]. Moreover, the GI50 in test [7] and in test [8] was more than 100 µM in each case. In addition, the TGI in test [1] was more than 100 µM; in test [2] it was 88.1 µM; in test [3] it was more than 100 µM; in test [4], more than 100 µM; in test [5] it was more than 100 µM; in [6], more than 100 µM. For the same compound, the TGI in test [7] and in test [8] was more than 100 µM each time.
Take `CC(=O)[O-].O=C([CH-]C(=O)c1ccccc1)c1ccccc1.O=C([CH-]C(=O)c1ccccc1)c1ccccc1.[Sm+3]`: the GI50 was 6.59 µM in test [1]; 2.12 µM in [2]; 6.23 µM in test [3]; 2.03 µM in test [4]; 6.11 µM in test [5]; 5.5 µM in [6]. Further, the GI50 in [7] is 1.96 µM; in test [8] it was 4.08 µM. Also, the TGI turned out to be 19 µM in [1]; 6.76 µM in test [2]; 24.8 µM in [3]; 6.93 µM in test [4]; 29.5 µM in test [5]; 22.5 µM in test [6]. Moreover, the TGI is 9.04 µM in test [7] and 34 µM in test [8].
For the compound `CC(C)=CC(=O)Cc1nc2ccc([N+](=O)[O-])cc2[nH]c1=O`, the TGI in test [1], in test [2], in test [3], in [4], in test [5] and in test [6] was more than 100 µM throughout. For the same compound, the TGI in [7] and in test [8] was more than 100 µM in each case.
For the compound `CC1(C)CC(N(C(=O)/C=C/c2ccc([N+](=O)[O-])o2)C2CCCCC2)CC(C)(C)N1`, the TGI in [1] came to 15.4 µM; in test [2], 22.3 µM; in [3], 18.9 µM; in test [9], 21.2 µM; in test [5], 29.7 µM; in test [6], 20.2 µM. The same compound registered a TGI in test [7] of 34.5 µM.
`CN(C)CC/C(=N\Nc1ccc(Cl)cc1Cl)c1ccccc1`: the TGI in test [1] came to 28.9 µM; in test [2], 20.9 µM; in test [3] it was 25.1 µM; in test [9] it was 32.3 µM; in [4], 28.6 µM; in [5], 29.6 µM. Also, the TGI is 24.9 µM in test [6], 30.3 µM in [7] and 49.7 µM in test [8].
Take `O=C(CCC(=O)C1CCC/C1=N/O)Nc1ccc(Cl)cc1` (centres undefined): the TGI in test [1], in test [2], in test [3], in [9], in [4] and in test [5] was more than 100 µM in each case. Also, the TGI in test [6], in test [7] and in [8] was more than 100 µM in each case.
Consider `COc1ccccc1C(=O)N(C)c1ccc(Cl)c(C(=O)OC(C)C)c1`, for which the TGI in [1], in test [2], in test [3], in [4], in test [5] and in test [10] was more than 100 µM throughout. The TGI in test [6] and in test [8] was more than 100 µM throughout.
For the compound `C=C1C(=O)O[C@H]2[C@H]1CC/C(COC(=O)NCc1ccc(Cn3c(=O)sn(-c4ccccc4)c3=O)cc1)=C\CC[C@@]1(C)O[C@@H]21`, the GI50 was 2.15 µM in test [1]; 2.14 µM in test [3]; 2.39 µM in [4]; 6.22 µM in [5]; 1.71 µM in [10]; 1.94 µM in test [6]. The values for the GI50 in test [7] and in test [8] were 12.4 µM and 2.09 µM, respectively. Further, the TGI came to 4.14 µM in [1]; 5.1 µM in test [3]; 6.34 µM in test [4]; 20.6 µM in test [5]; 3.12 µM in test [10]; 3.88 µM in [6]. Also, the results for the TGI in test [7] and in [8] were 26.3 µM and 4.06 µM, respectively.
Regarding `Cn1cccc1/C=C/c1cc(Br)c(/C=C/c2cccn2C)cc1Br`, the TGI in test [1] is 41.5 µM; in [2], 16.5 µM; in test [3], 72.4 µM; in test [4], 37.2 µM; in test [5] it was 39.1 µM; in test [6] it was 24.6 µM. Also, in [8], the TGI was 31.2 µM.
Consider `CCc1cccc(C)c1NC(=O)CC1C(=O)Nc2ccccc2S1(=O)=O` (centres undefined), for which the TGI in [1] was determined as 36.4 µM; in [2], 31.2 µM; in test [3] it was 63.6 µM; in test [9] it was 23.8 µM; in [4] it was 53.5 µM; in test [5] it was 35.2 µM. Besides, the figures for the TGI in test [6] and in test [8] were 33.8 µM and 33 µM, respectively.

The values above are taken from PubChem BioAssay (NCI).
